Several values for one entry are separate records, joined by “and”; a condition that tells them apart may be missing. Equal values may be shown once.
Test system: 677734-321-R-J1-PDC complex spheroid viability
Assay: Anticancer human tumor 677734-321-R-J1-PDC patient-derived soft tissue sarcoma cell line growth inhibition [POLQ]
Conditions: for viability, T/C: stronger effect = lower value
Protocol: Multicellular complex tumor spheroid response to Polymerase (POL) inhibitors (novobiocin, ART-558, RP6685) in combination with a variety of drugs and investigational agents in selected tumor cell lines
The POL inhibitors (novobiocin, ART-558, and RP6685) were evaluated both individually and in combination with standard of care and investigational anticancer small molecules within a complex spheroid model of solid tumors. . Complex spheroids include a stromal component modeled by human endothelial cells (HUVEC) and fibroblasts modeled by human mesenchymal stem cells (MSCs). The concentration ranges selected for each drug and investigational agent were based upon clinically achievable concentrations if the clinical Cmax of the agent was known.
Compounds. The drugs and investigational agents: novobiocin (NSC847541), ART-558 (NSC835418), RP-6685 (NSC848927), peposertib (NSC802822), ceralasertib (NSC780249), elimusertib (NSC800525), camonsertib (NSC841442), AZD-1390 (NSC803789), olaparib (NSC753686), talazoparib (NSC767125), rucaparib (NSC756644), sotorasib (NSC818433), MRTX-1133 (NSC836407), SN-38 (NSC673596), topotecan (NSC609699), epotoside (NSC141540), doxorubicin (NSC123127), gemcitabine (NSC613327), 5-fluorouracil (NSC19893), paclitaxel (NSC125973), vemurafenib (NSC761431), MSA-2 (NSC828583), SN-011 (NSC837082), adavosertib (NSC754352), prexasertib (NSC758257), carboplatin (NSC241240) and oxaliplatin (NSC266046), were obtained from the National Cancer Institute (NCI) Developmental Therapeutics Program Chemical Repository (21). The FDA-approved anticancer drug set is available from the Developmental Therapeutics Program at https://dtp.cancer.gov/organization/dscb/obtaining/. […] The stock solutions were prepared in dimethyl sulfoxide (DMSO, Sigma-Aldrich, St. Louis, MO, cat. D2650), except for the platinum compounds which were prepared in saline (Quality Biological, Gaithersburg, MD, cat. 114-055-101), at 800-fold the tested concentration and stored at -70 degrees C prior to their use. All drugs and investigational agents were tested over a range starting from a high concentration at or near the clinical Cmax and decreasing in half-log increments. If the clinical Cmax for an agent had not been determined, the highest concentration tested was 10 microM, except for SN-38, which was tested at a high concentration of 1 microM.
Cell Culture. All cells were maintained in an incubator at 37 degrees C and 5% CO2 with 95% humidity. The PDC lines were cultured according to standard operating procedures established by the NCI PDMR (https://pdmr.cancer.gov). Table 3 of the manuscript, lists the cell lines along with the number of the three cell types plated to form the mct-spheroids and media for tumor cell growth. After thawing, all PDC lines, except 997537-175-T-J1-PDC and 415267-285-R-J2-PDC, were cultured in Matrigel-coated flasks prepared with a working solution of 1X Ham's F-12 nutrient mix, without supplementation (Thermo Fisher Scientific, cat. 11765054), 100 U/mL penicillin-streptomycin (Thermo Fisher Scientific, cat. 15140122), and 2.5% Matrigel (Corning Inc., Corning, NY, cat. 354248) for the first three passages. The two PDC lines 997537-175-T-J1-PDC and 415267-285-R-J2-PDC were cultured on uncoated flasks. The 857933-349-R-J2-PDC line was cultured in 6C/Colon 1B media containing advanced DMEM/F-12 (Thermo Fisher Scientific, cat. 12634028), 10 mM HEPES (Thermo Fisher Scientific, cat. 15630080), 1X GlutaMAX supplement (Thermo Fisher Scientific, cat. 35050061), 0.1 mg/mL primocin (InvivoGen, San Diego, CA, cat. ant-pm-2), 10% defined fetal bovine serum, heat inactivated (HyClone Laboratories Inc., Logan, UT, cat. SH30070.03HI), 50% L-WRN conditioned media (ATCC, cat. CRL-3276), 1.25 mM N-Acetyl-L-cysteine (Sigma-Aldrich, cat. A9165), 10 mM nicotinamide (Sigma-Aldrich, cat. N0636), 1X B-27 supplement (Thermo Fisher Scientific, cat. 17504044), 1X N-2 supplement (Thermo Fisher Scientific, cat. […]

[1] = compound alone, run of 11/27/2023
[2] = compound alone, run of 12/05/2023
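Note: spheroids exposed to compounds for one week.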
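Throughout, for viability, T/C: 100% = vehicle DMSO treated spheroids.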

CNCc1ccc(-c2[nH]c3cc(F)cc4c3c2CCNC4=O)cc1
viability, T/C (compound 0.0316 µM): 105% and 107% and 106%
viability, T/C (compound 0.1 µM): 101% and 75.4% and 97.1%
viability, T/C (compound 0.316 µM): 102% and 106% and 99.2%
viability, T/C (compound 1 µM): 101% and 99.7% and 105%
viability, T/C (compound 3.16 µM): 108% and 101% and 99%
viability, T/C (compound 10 µM): 106% and 82.2% and 88.9%
IC50 (curve of compound): > 10 µM

COC1C(OC(N)=O)C(O)C(Oc2ccc3c(O)c(NC(=O)c4ccc(O)c(CC=C(C)C)c4)c(=O)oc3c2C)OC1(C)C (centres undefined)
viability, T/C (compound 0.0316 µM): 103% [middle of 13 runs]
viability, T/C (compound 0.1 µM): 104% [middle of 13 runs]
viability, T/C (compound 0.316 µM): 110% [middle of 13 runs]
viability, T/C (compound 1 µM): 104% [middle of 13 runs]
viability, T/C (compound 3.16 µM): 106% [middle of 13 runs]
viability, T/C (compound 10 µM): 106% [middle of 13 runs]
IC50 [1]: > 10 µM

COc1cc(C2c3cc4c(cc3C(OC3OC5COC(C)OC5C(O)C3O)C3COC(=O)C23)OCO4)cc(OC)c1O (centres undefined)
viability, T/C (compound 0.0316 µM): 104% and 100% and 109%
viability, T/C (compound 0.1 µM): 89.1% and 82.7% and 89.3%
viability, T/C (compound 0.316 µM): 62.1% and 53.5% and 58%
viability, T/C (compound 1 µM): 57.5% and 29.2% and 48.4%
viability, T/C (compound 3.16 µM): 31.5% and 19.5% and 25.9%
viability, T/C (compound 10 µM): 8.04% and 9.9% and 10.2%
IC50 (curve of compound): 0.97 µM and 0.385 µM and 0.706 µM

COc1cc2cc(C(=O)CCC(=O)O)sc2cc1OC
viability, T/C (compound 0.0316 µM): 100% and 108% and 101%
viability, T/C (compound 0.1 µM): 94.4% and 93.7% and 102%
viability, T/C (compound 0.316 µM): 82% and 105% and 114%
viability, T/C (compound 1 µM): 95.8% and 98.6% and 106%
viability, T/C (compound 3.16 µM): 97.5% and 107% and 106%
viability, T/C (compound 10 µM): 105% and 99.9% and 113%
IC50 (curve of compound): > 10 µM

COc1ccc([C@@H](O)c2cc(-c3ncnc4cc(N5CCOCC5)ccc34)c(F)cc2Cl)nn1
viability, T/C (compound 0.0316 µM): 107% and 98.4% and 105%
viability, T/C (compound 0.1 µM): 105% and 99.2% and 102%
viability, T/C (compound 0.316 µM): 100% and 104% (2×)
viability, T/C (compound 1 µM): 96.4% and 81.6% and 94.7%
viability, T/C (compound 3.16 µM): 73.8% and 64.6% and 87.4%
viability, T/C (compound 10 µM): 49.8% and 45.3% and 51%
IC50 (curve of compound): 9.83 µM and 7.58 µM and > 10 µM

COc1cccc(OCCCN)c1-c1cc(Nc2cnc(C#N)cn2)n[nH]1
viability, T/C (compound 0.00316 µM): 96.4% and 60.4% and 103%
viability, T/C (compound 0.01 µM): 35.5% and 11.5% and 11.2%
viability, T/C (compound 0.0316 µM): 13.8% and 5.42% and 7.19%
viability, T/C (compound 0.1 µM): 8.96% and 5.9% and 8.69%
viability, T/C (compound 0.316 µM): 11% and 6.62% and 7.27%
viability, T/C (compound 1 µM): 10.3% and 5.14% and 6.13%
IC50 (curve of compound): 0.00761 µM and 0.00404 µM and 0.00615 µM

COc1cccc2c1C(=O)c1c(O)c3c(c(O)c1C2=O)CC(O)(C(=O)CO)CC3OC1CC(N)C(O)C(C)O1 (centres undefined)
viability, T/C (compound 0.0316 µM): 86.2% and 48.1% and 72.7%
viability, T/C (compound 0.1 µM): 48.5% and 29% and 48.7%
viability, T/C (compound 0.316 µM): 8% and 4.1% and 6.65%
viability, T/C (compound 1 µM): 0.91% and 1.65%
viability, T/C (compound 3.16 µM): 2.59% and 1.37% and 2.03%
viability, T/C (compound 10 µM): 3.4% and 0.66% and 2.59%
IC50 (curve of compound): 0.0956 µM and < 0.0316 µM and 0.0938 µM

Cc1cccc(N(C)C(=O)C2C(O)CCN2c2nc(C)cc(C(F)(F)F)c2C#N)c1 (centres undefined)
viability, T/C (compound 0.0316 µM): 101% [middle of 13 runs]
viability, T/C (compound 0.1 µM): 103% [middle of 13 runs]
viability, T/C (compound 0.316 µM): 107% [middle of 13 runs]
viability, T/C (compound 1 µM): 99.2% [middle of 13 runs]
viability, T/C (compound 3.16 µM): 102% [middle of 13 runs]
IC50 [1]: > 10 µM
IC50 [2]: > 10 µM

Cn1ncnc1[C@H]1c2n[nH]c(=O)c3cc(F)cc(c23)N[C@@H]1c1ccc(F)cc1
viability, T/C (compound 0.000316 µM): 101% and 87.2% and 106%
viability, T/C (compound 0.001 µM): 104% and 93.2% and 95.4%
viability, T/C (compound 0.00316 µM): 97.4% and 107% and 117%
viability, T/C (compound 0.01 µM): 105% and 94.7% and 104%
viability, T/C (compound 0.0316 µM): 98.8% and 94.5% and 106%
viability, T/C (compound 0.1 µM): 93% and 75.8% and 93.5%
IC50 (curve of compound): > 0.1 µM

Nc1ccc(C#CCN(C(=O)Cc2ncc(C(F)(F)F)cc2C(F)(F)F)c2ccc(F)cc2)nn1
viability, T/C (compound 0.1 µM): 104% [middle of 13 runs]
viability, T/C (compound 0.316 µM): 103% [middle of 13 runs]
viability, T/C (compound 3.16 µM): 99.7% [middle of 13 runs]
IC50 [2]: > 10 µM

Nc1ccn(C2OC(CO)C(O)C2(F)F)c(=O)n1 (centres undefined)
viability, T/C (compound 0.0316 µM): 34.7% and 15.9% and 21.9%
viability, T/C (compound 0.1 µM): 14.8% and 10.8% and 14.6%
viability, T/C (compound 0.316 µM): 16.7% and 11.1% and 12.8%
viability, T/C (compound 1 µM): 14.4% and 10% and 14.7%
viability, T/C (compound 3.16 µM): 14.3% and 7.7% and 10.6%
viability, T/C (compound 10 µM): 12.5% and 6.81% and 8.93%
IC50 (curve of compound): < 0.0316 µM

O=C(Nc1ccc(O)c(NS(=O)(=O)c2ccc(F)cc2)c1)c1ccc(-c2ccccc2)cc1
viability, T/C (compound 0.0316 µM): 96.9% and 104% and 110%
viability, T/C (compound 0.1 µM): 100% and 107% and 109%
viability, T/C (compound 0.316 µM): 108% and 112% and 104%
viability, T/C (compound 1 µM): 94.2% and 98.8% and 106%
viability, T/C (compound 3.16 µM): 68.3% and 79.4% and 89.6%
viability, T/C (compound 10 µM): 21.9% and 20.6% and 32.8%
IC50 (curve of compound): 4.96 µM and 5.6 µM and 7.07 µM

O=C(c1cc(Cc2n[nH]c(=O)c3ccccc23)ccc1F)N1CCN(C(=O)C2CC2)CC1
viability, T/C (compound 0.0316 µM): 102% and 15.6% and 95.7%
viability, T/C (compound 0.1 µM): 100% and 20.2% and 94.9%
viability, T/C (compound 0.316 µM): 104% and 16.8% and 106%
viability, T/C (compound 1 µM): 105% and 20.7% and 100%
viability, T/C (compound 3.16 µM): 97.5% and 14.8% and 101%
viability, T/C (compound 10 µM): 77.8% and 12.2% and 58.9%

O=c1[nH]cc(F)c(=O)[nH]1
viability, T/C (compound 0.0316 µM): 116% and 111% and 113%
viability, T/C (compound 0.1 µM): 101% and 86.4% and 96.7%
viability, T/C (compound 0.316 µM): 108% and 104% (2×)
viability, T/C (compound 1 µM): 85.4% and 84.6% and 91.5%
viability, T/C (compound 3.16 µM): 54.7% and 62.5% and 51.4%
viability, T/C (compound 10 µM): 44.1% and 59% and 42.7%
IC50 (curve of compound): 5.22 µM and > 10 µM and 3.84 µM

From PubChem BioAssay AID1963842 (Molecular Pharmacology Branch, DTP, NCI, 2024)
